One may read the ED50 as the midpoint of the dose-response relation. Broadly, the LD50 is the dose at which mortality reaches 50%.

Where two headings read alike, the source gives them in different places.

Experimental findings from US3960863A, “Pyrido[1,2-a]pyrimidinone derivatives” (Sankyo Company Limited, priority 1974, dated 1976) are described below.

In series [1] the test system is Thiopental-induced Anesthesia. The series is described as follows: Potentiating effect of thiopental-induced anesthesia (anesthesia-potentiating effect). To be noted: 0.5 h, read-out: Potentiating Effect of Thiopental-induced Anesthesia ED50. It is filed as in vivo, mouse. Here is the method: The pharmacological test was performed in the manner that to a mouse having the body weight of about 25 g was orally administered and, after 30 minutes, given through the vein sodium thiopental in an amount of 30 mg per 1 kg of the body weight, and then the duration time of loss of righting reflux was detected. In the above Table, the value is expressed in ED50 value, by which the duration time of loss of righting reflex is prolonged twice as long as that of the control having been given with thiopental only.

Series [2] in a line: Acute toxicity in mouse (LD50). To be noted: in vivo.
Where [3] appears, read: mouse, oral, sodium thiopental 30 mg/kg i.v. after 30 minutes, ED50 = dose doubling duration of loss of righting reflex vs control, Litchfield-Wilcoxon, 95% confidence limits in parentheses.
The mark [4] stands for this setting: ip, 95% confidence limits in parentheses where given, read-out: Acute Toxicity in mouse LD50 (i.p.).
Setting [5] is: po, 95% confidence limits in parentheses, read-out: Acute Toxicity in mouse LD50 (p.o.).

Consider `Cc1ccn2c(=O)c(CCN3CCN(c4cccc(Cl)c4)CC3)c(C)nc2c1` [3-[2-(4-m-Chlorophenyl-1-piperazinyl)ethyl]-2,8-dimethyl-4H-pyrido[1,2-a]pyrimidin-4-one], for which the median effective dose (ED50) in series [1] (setting [3]) was determined as 0.92 mg/kg. Also, the LD50 in series [2] (setting [4]) was 100 to 300 mg/kg; in series [2] (setting [5]) it was 635 mg/kg.
Take `COc1cccc(N2CCN(CCc3c(C)nc4cc(C)ccn4c3=O)CC2)c1` [3-[2-(4-m-Methoxyphenyl-1-piperazinyl)ethyl]-2,8-dimethyl-4H-pyrido[1,2-a]pyrimidin-4-one]: the ED50 in series [1] (setting [3]) amounted to 0.7 mg/kg. For the same compound, the LD50 in series [2] (setting [4]) was 100 to 300 mg/kg.
`Cc1cccc(N2CCN(CCc3c(C)nc4c(C)cccn4c3=O)CC2)c1` [3-[2-(4-m-Tolyl-1-piperazinyl)ethyl]-2,9-dimethyl-4H-pyrido[1,2-a]pyrimidin-4-one]: the ED50 in series [1] (setting [3]) came out at 1.25 mg/kg. For the same compound, the LD50 in series [2] (setting [4]) lay within 100 to 300 mg/kg.
On to `Cc1cccc(N2CCN(CCc3c(C)nc4cc(C)cc(C)n4c3=O)CC2)c1` [3-[2-(4-m-tolyl-1-piperazinyl)ethyl]-2,6,8-trimethyl-4H-pyrido[1,2-a]pyrimidin-4-one], for which the ED50 in series [1] (setting [3]) came out at 1.7 mg/kg. Besides, the LD50 in series [2] (setting [4]) is 100 to 300 mg/kg.
For the compound `Cc1cccc(N2CCN(CCc3c(C)nc4cc(C)ccn4c3=O)CC2)c1` [3-[2-(4-m-tolyl-1-piperazinyl)ethyl]-2,8-dimethyl-4H-pyrido[1,2-a]pyrimidin-4-one], the ED50 in series [1] (setting [3]) came out at 0.8 mg/kg. In addition, the LD50 in series [2] (setting [4]) is 100 to 300 mg/kg; in series [2] (setting [5]), 480 mg/kg.
As for `Cc1ccn2c(=O)c(CCN3CCN(c4ccc(Cl)cc4)CC3)c(C)nc2c1` [3-[2-(4-p-Chlorophenyl-1-piperazinyl)ethyl]-2,8-dimethyl-4H-pyrido[1,2-a]pyrimidin-4-one], the ED50 in series [1] (setting [3]) was determined as 2.9 mg/kg. Further, the LD50 in series [2] (setting [4]) was 100 to 300 mg/kg.
On to `Cc1ccc(N2CCN(CCc3c(C)nc4c(C)cccn4c3=O)CC2)cc1` [3-[2-(4-p-Tolyl-1-piperazinyl)ethyl]-2,9-dimethyl-4H-pyrido[1,2-a]pyrimidin-4-one], for which the ED50 in series [1] (setting [3]) came to 1.8 mg/kg. In addition, the LD50 in series [2] (setting [4]) was in the range of 100 to 300 mg/kg.
For the compound `CN(C)CCCN1c2ccccc2Sc2ccc(Cl)cc21` [chlorpromazine, reference compound], the ED50 in series [1] (Mus musculus, po) is 3.5 mg/kg. Also, the LD50 turned out to be 105 mg/kg in series [2] (setting [4]) and 245 mg/kg in series [2] (setting [5]).
